System: SH-SY5Y cells
Test: Gene expression analysis by RNA sequencing in the presence of Aβ
Type: cell-based, human
Settings: 5 μM, with Aβ
From the text: The SH-S5Y5 neuroblastoma cell line was used for pre-clinical analysis. The SH-S5Y5 cell line is commonly used as a model for neurodegenerative disorders as the cells can be converted to various types of functional neurons by the addition of specific compounds (see, e.g., Xicoy et al., 2017, Molecular Neurodegeneration, 12: 10). In addition, the SH-S5Y5 cell line has been used widely in experimental neurological studies, including analysis of neuronal differentiation, metabolism, and function related to neurodegenerative processes, neurotoxicity and neuroprotection (see, e.g., Datki et al., 2003, Brain Research Bulletin, 62(3): 22-229; and Xie et al., 2010, Chinese Medical Journal, 123(8): 1086-1092).
Total RNA was isolated from cells using TRIzol in accordance with the manufacturer's instructions (Invitrogen, Carlsbad, CA, USA). RNA concentration and quality was assessed using a NanoDrop spectrophotometer. Only samples with a 260/280 ratio of ≥1.8 were used for further analysis.
Messenger RNA (mRNA) was purified from total RNA using poly-T oligo attached magnetic beads. After fragmentation, cDNA synthesis was performed in accordance with the manufacturer's instructions (Illumina, San Diego, CA, USA) to generate a directional and non-directional library. Libraries were checked with Qubit, real-time PCR was performed for quantification, and size distribution detection was performed using the Bioanalyzer. Quantified libraries were pooled and sequenced on an Illumina platform, according to the manufacturer's instructions.
Raw reads were filtered and mapped to human reference genome (GRCh38/hg38) using HISAT2. Differential gene expression analysis was performed using R Package DEG seq2. […] Manual annotation of genes previously associated with specific neurodegenerative disorders and dementias was performed following a text mining analysis.

What does the source list for `COc1cc2c(cc1OC)C(=O)C(CC1CCN(Cc3ccccc3)CC1)C2` (stereo not shown) [Donepezil]?
MEG3 gene expression (control 0.007, P 0.038): 0.008; SAMD12 gene expression (control 0.011, P 0.052): 0.002; TNF gene expression (control 0.032, P 0.046): 0.026; ATXN7 gene expression (control 0.042, P 0.014): 0.150; PRICKLE2 gene expression (control 0.060, P 0.007): 0.085; IRF4 gene expression (control 0.076, P 0.050): 0.010; NRXN1 gene expression (control 0.085, P 0.007): 0.125; DNAH8 gene expression (control 0.090, P 0.017): 0.009; MME gene expression (control 0.091, P 0.004): 0.240; CLN3 gene expression (control 0.092, P 0.051): 0.093; DMD gene expression (control 0.166, P 0.017): 0.352; PPP2R2B gene expression (control 0.179, P 0.056): 0.146; PRSS23 gene expression (control 0.196, P 0.022): 0.193; ACE gene expression (control 0.209, P 0.004): 0.644; A2M gene expression (control 0.242, P 0.006): 0.122; TCIRG1 gene expression (control 0.302, P 0.023): 0.340; SLC1A1 gene expression (control 0.314, P 0.003): 0.482; NTNG1 gene expression (control 0.327, P 0.009): 0.249; NTRK2 gene expression (control 0.329, P 0.015): 0.700; PIH1D2 gene expression (control 0.334, P 0.023): 0.137; TUBA4A gene expression (control 0.334, P 0.053): 0.432; FGFR2 gene expression (control 0.353, P 0.053): 0.228; PDE11A gene expression (control 0.366, P 0.020): 0.416; TUNAR gene expression (control 0.382, P 0.009): 0.441; RETREG1 gene expression (control 0.386, P 0.001): 0.774; SORL1 gene expression (control 0.455, P 0.009): 0.683; DPY19L2P2 gene expression (control 0.469, P 0.040): 0.560; TRIM9 gene expression (control 0.529, P 0.008): 1.021; MATR3 gene expression (control 0.559, P 0.001): 0.511; SYCE2 gene expression (control 0.567, P 0.049): 0.604; PLA2G6 gene expression (control 0.634, P 0.016): 0.830; DEPDC5 gene expression (control 0.656, P 0.020): 0.683; CLN5 gene expression (control 0.695, P 0.004): 0.652; SLC9B1 gene expression (control 0.735, P 0.053): 0.713; PLAU gene expression (control 0.799, P 0.005): 1.790; ATXN1 gene expression (control 0.851, P 0.002): 1.152; IRAK1BP1 gene expression (control 0.866, P 0.030): 0.848; PRPH gene expression (control 0.870, P 0.011): 1.132; FHIT gene expression (control 0.882, P 0.033): 1.086; CFAP43 gene expression (control 0.931, P 0.049): 0.636; TMEM63A gene expression (control 0.954, P 0.055): 1.141; LRRC56 gene expression (control 0.982, P 0.002): 1.129; PARD3B gene expression (control 0.986, P 0.002): 1.168; ADCY5 gene expression (control 1.228, P 0.036): 1.662; DISC1 gene expression (control 1.302, P 0.033): 1.242; KCNT1 gene expression (control 1.355, P 0.002): 1.707; GAN gene expression (control 1.529, P 0.018): 1.495; DPP10 gene expression (control 1.590, P 0.009): 1.562; CHRNB4 gene expression (control 1.624, P 0.018): 2.920; MEF2C gene expression (control 1.668, P 0.044): 1.624; PACRG gene expression (control 1.720, P 0.027): 1.797; CDKL5 gene expression (control 1.735, P 0.001): 2.077; SIL1 gene expression (control 1.736, P 0.021): 1.886; PDLIM3 gene expression (control 1.777, P 0.026): 3.231; MT-TH gene expression (control 1.782, P 0.047): 0.388; MT-TD gene expression (control 1.849, P 0.032): 2.334; MMACHC gene expression (control 1.874, P 0.018): 1.731; ZFYVE26 gene expression (control 1.909, P 0.032): 1.930; TMLHE gene expression (control 1.915, P 0.004): 2.188; MAPT gene expression (control 1.915, P 0.007): 2.615; MSRA gene expression (control 1.969, P 0.027): 1.709; COQ2 gene expression (control 1.970, P 0.055): 1.406; PINK1-AS gene expression (control 1.974, P 0.029): 1.689; DLG2 gene expression (control 1.977, P 0.041): 2.816; FZD3 gene expression (control 1.990, P 0.010): 2.276; KATNAL2 gene expression (control 2.005, P 0.000): 2.056; ALMS1 gene expression (control 2.170, P 0.003): 2.220; HOTAIR gene expression (control 2.219, P 0.008): 1.982; SETD1B gene expression (control 2.501, P 0.005): 3.039; DRD2 gene expression (control 2.532, P 0.031): 4.790; SMARCA2 gene expression (control 2.546, P 0.044): 2.658; MFSD8 gene expression (control 2.553, P 0.038): 2.381; BDNF gene expression (control 2.554, P 0.014): 0.255; ABCA7 gene expression (control 2.607, P 0.032): 2.087; FSD1L gene expression (control 2.639, P 0.002): 2.451; ROGDI gene expression (control 2.747, P 0.055): 3.041; SPG7 gene expression (control 2.790, P 0.011): 2.471; MT-TW gene expression (control 2.846, P 0.019): 2.620; ATP1A3 gene expression (control 2.847, P 0.021): 3.739; ATL1 gene expression (control 2.891, P 0.027): 3.208; GM2A gene expression (control 2.985, P 0.005): 5.621; LYST gene expression (control 3.000, P 0.053): 2.468; APOL2 gene expression (control 3.111, P 0.054): 3.390; DCX gene expression (control 3.114, P 0.003): 3.488; IFT74 gene expression (control 3.453, P 0.032): 4.207; CLN8 gene expression (control 3.580, P 0.014): 2.847; RBM12 gene expression (control 3.638, P 0.000): 3.884; PRICKLE1 gene expression (control 3.757, P 0.002): 3.333; DPH1 gene expression (control 3.762, P 0.040): 3.962; TRAPPC9 gene expression (control 3.776, P 0.021): 4.781; EIF2B3 gene expression (control 3.828, P 0.043): 3.200; PDE10A gene expression (control 3.855, P 0.030): 3.147; TRAPPC2 gene expression (control 3.872, P 0.053): 4.012; C9orf72 gene expression (control 3.921, P 0.001): 8.663; TFEB gene expression (control 4.181, P 0.001): 2.618; PODXL gene expression (control 4.194, P 0.011): 4.847; ATP6V0A2 gene expression (control 4.281, P 0.017): 4.607; TTC21B gene expression (control 4.351, P 0.026): 4.248; VPS13D gene expression (control 4.370, P 0.001): 4.565; PIGQ gene expression (control 4.438, P 0.008): 4.983; PTPRM gene expression (control 4.505, P 0.000): 4.710; RHOBTB2 gene expression (control 4.522, P 0.012): 5.349; MRE11 gene expression (control 4.546, P 0.036): 4.436; EHMT1 gene expression (control 4.566, P 0.010): 4.445; CYLD gene expression (control 4.607, P 0.036): 3.887; PRDM8 gene expression (control 4.779, P 0.013): 3.461; RNF213 gene expression (control 4.801, P 0.002): 5.276; USP8 gene expression (control 4.840, P 0.047): 3.827; LIG3 gene expression (control 4.935, P 0.007): 5.232; MIAT gene expression (control 5.041, P 0.014): 6.814; JAM2 gene expression (control 5.256, P 0.040): 4.131; PSEN2 gene expression (control 5.259, P 0.051): 5.579; LMBRD1 gene expression (control 5.367, P 0.022): 5.309; NPC1 gene expression (control 5.515, P 0.001): 6.062; OPA1 gene expression (control 5.517, P 0.001): 9.622; VAPB gene expression (control 5.611, P 0.005): 5.235; ANXA11 gene expression (control 5.661, P 0.025): 6.974; MT-TI gene expression (control 5.685, P 0.038): 4.404; GOSR2 gene expression (control 5.846, P 0.000): 5.640; LDLR gene expression (control 5.953, P 0.003): 7.563; DDHD2 gene expression (control 6.006, P 0.000): 6.144; SREBF1 gene expression (control 6.248, P 0.024): 8.317; SLC25A24 gene expression (control 6.258, P 0.036): 5.685; CREB1 gene expression (control 6.333, P 0.006): 7.340; FIG4 gene expression (control 6.430, P 0.051): 6.116; BLMH gene expression (control 6.516, P 0.013): 6.896; APTX gene expression (control 6.525, P 0.011): 6.767; TPP1 gene expression (control 6.541, P 0.009): 7.171; ADAM10 gene expression (control 6.563, P 0.019): 5.824; MT-TA gene expression (control 6.758, P 0.027): 2.804; RAB33A gene expression (control 6.793, P 0.003): 6.922; MT-TC gene expression (control 6.838, P 0.052): 10.995; MECP2 gene expression (control 6.880, P 0.033): 5.530; SPAST gene expression (control 6.944, P 0.053): 5.978; TMEM106B gene expression (control 7.108, P 0.005): 6.957; CRAT gene expression (control 7.227, P 0.031): 9.692; CSTB gene expression (control 7.261, P 0.008): 9.549; IRF6 gene expression (control 7.365, P 0.000): 5.933; TRPM7 gene expression (control 7.393, P 0.030): 5.958; OTUD6B gene expression (control 7.405, P 0.048): 6.534; MAPK8 gene expression (control 7.482, P 0.022): 9.392; POLR1C gene expression (control 7.525, P 0.034): 6.234; CHCHD10 gene expression (control 7.586, P 0.010): 11.163; ATL3 gene expression (control 7.656, P 0.030): 6.616; WDR37 gene expression (control 7.709, P 0.023): 7.870
